From patent US20230014151A1, “COMBINATION ANTIVIRAL THERAPY FOR MEASLES” (The Trustees of Columbia University in the City of New York, priority 2019, published 2023) come the findings set out here.

The term IC50 denotes the midpoint of a concentration-inhibition curve. Low readings indicate greater potency, high ones weaker potency. A word on the IC90: it is the concentration needed for an effect of 90%.

Test [1] concerns the target viral glycoproteins (H and F); CD150. Kind of test: beta-galactosidase complementation-based fusion assay, CD150 target cells. Conditions: for IC90: read-out: CD150 IC90.
Test [2] has as its target viral glycoproteins (H and F); Nectin-4 (Measles virus, UniProt Q786F3). Kind of test: beta-galactosidase complementation-based fusion assay, Nectin-4 target cells.
The target in test [3] is measles virus (MeV) fusion protein F, wild type, expressed on cells (measles virus) (UniProt Q786F3). Description: cell-based or functional assay.
The mark [4] stands for this setting: Nectin4 IC50, Table 3 (extended version).

Read-outs that look alike come from different tables or passages of the source. Numbered stars: 1 amine (or outer) side, 2 acyl side, 3 side chain; on linkers, the order of the positions; unused ones are H or OH. Bridge positions count the residues as written; N and C are the ends. Square brackets hold non-standard residues; d marks the D form. Peptide text beside a SMILES is read from it. I, II: the chains in the order shown. * marks the point of attachment. X2 = O=C(CCN1C(=O)CC([*:1])C1=O)NCCOCCOCCOCCOCCOCCOCCOCCOCCOCCOCCOCCNC(=O)CCN1C(=O)CC([*:2])C1=O; Succinimide(1-Et,3-yl) = CCN1C(=O)CC(*)C1=O; Cbz = O=C(OCc1ccccc1)*

With `O=C(CCN1C(=O)CC(SC[C@H](NC(=O)CNC(=O)[C@H](CO)NC(=O)CNC(=O)[C@H](CO)NC(=O)CNC(=O)CNC(=O)[C@H](Cc2ccccc2)NC(=O)[C@@H](Cc2ccccc2)NC(=O)OCc2ccccc2)C(=O)O)C1=O)NCCOCCOCCOCCOCCOCCOCCOCCOCCOCCOCCOCCNC(=O)CCN1C(=O)CC(SC[C@H](NC(=O)CNC(=O)[C@H](CO)NC(=O)CNC(=O)[C@H](CO)NC(=O)CNC(=O)CNC(=O)[C@H](Cc2ccccc2)NC(=O)[C@@H](Cc2ccccc2)NC(=O)OCc2ccccc2)C(=O)O)C1=O` (some centres unmarked) [[FIP]2-peg11] (I: Cbz-[dF]FGGSGSGC-OH / II: Cbz-[dF]FGGSGSGC-OH; linker I:9-II:9 via X2), the values for the IC50 in test [1] and in test [2] (setting [4]) were greater than 1 µM and greater than 10 µM, respectively. In addition, the IC90 in test [1] was greater than 1 µM; in test [2] (read-out: Nectin4 IC90) it was greater than 10 µM.

Consider `CC[C@H](C)[C@H](NC(=O)[C@H](C)NC(=O)[C@H](CC(N)=O)NC(=O)CNC(=O)[C@H](CC(C)C)NC(=O)[C@H](CC(N)=O)NC(=O)[C@@H](NC(=O)CNC(=O)[C@@H](NC(=O)[C@H](CC(=O)O)NC(=O)[C@H](CC(C)C)NC(=O)[C@H](CCCNC(=N)N)NC(=O)[C@H](CCC(=O)O)NC(=O)[C@H](CC(C)C)NC(=O)[C@H](CO)NC(=O)[C@@H](NC(=O)[C@@H]1CCCN1C(=O)[C@@H]1CCCN1C(=O)CNC(=O)[C@H](CO)NC(=O)CNC(=O)[C@H](CO)NC(=O)CNC(=O)CNC(=O)[C@H](Cc1ccccc1)NC(=O)[C@@H](Cc1ccccc1)NC(=O)OCc1ccccc1)[C@@H](C)CC)C(C)C)[C@@H](C)O)C(=O)N[C@@H](C)C(=O)N[C@@H](CCCCN)C(=O)N[C@@H](CC(C)C)C(=O)N[C@@H](CCC(=O)O)C(=O)N[C@@H](CC(=O)O)C(=O)N[C@@H](C)C(=O)N[C@@H](CCCCN)C(=O)N[C@@H](CCC(=O)O)C(=O)N[C@@H](CC(C)C)C(=O)N[C@@H](CC(C)C)C(=O)N[C@@H](CCC(=O)O)C(=O)N[C@@H](CO)C(=O)N[C@@H](CO)C(=O)N[C@@H](CC(=O)O)C(=O)N[C@@H](CCC(N)=O)C(=O)N[C@H](C(=O)N[C@@H](CC(C)C)C(=O)N[C@@H](CCCNC(=N)N)C(=O)N[C@@H](CSC1CC(=O)N(CCCC(=O)NCCOCCOCCOCCOCCC(=O)NCCN(CCNC(=O)CCOCCOCCOCCOCCNC(=O)CCCN2C(=O)CC(SC[C@H](NC(=O)[C@H](CCCNC(=N)N)NC(=O)[C@H](CC(C)C)NC(=O)[C@@H](NC(=O)[C@H](CCC(N)=O)NC(=O)[C@H](CC(=O)O)NC(=O)[C@H](CO)NC(=O)[C@H](CO)NC(=O)[C@H](CCC(=O)O)NC(=O)[C@H](CC(C)C)NC(=O)[C@H](CC(C)C)NC(=O)[C@H](CCC(=O)O)NC(=O)[C@H](CCCCN)NC(=O)[C@H](C)NC(=O)[C@H](CC(=O)O)NC(=O)[C@H](CCC(=O)O)NC(=O)[C@H](CC(C)C)NC(=O)[C@H](CCCCN)NC(=O)[C@H](C)NC(=O)[C@@H](NC(=O)[C@H](C)NC(=O)[C@H](CC(N)=O)NC(=O)CNC(=O)[C@H](CC(C)C)NC(=O)[C@H](CC(N)=O)NC(=O)[C@@H](NC(=O)CNC(=O)[C@@H](NC(=O)[C@H](CC(=O)O)NC(=O)[C@H](CC(C)C)NC(=O)[C@H](CCCNC(=N)N)NC(=O)[C@H](CCC(=O)O)NC(=O)[C@H](CC(C)C)NC(=O)[C@H](CO)NC(=O)[C@@H](NC(=O)[C@@H]3CCCN3C(=O)[C@@H]3CCCN3C(=O)CNC(=O)[C@H](CO)NC(=O)CNC(=O)[C@H](CO)NC(=O)CNC(=O)CNC(=O)[C@H](Cc3ccccc3)NC(=O)[C@@H](Cc3ccccc3)NC(=O)OCc3ccccc3)[C@@H](C)CC)C(C)C)[C@@H](C)O)[C@@H](C)CC)[C@@H](C)CC)C(=O)O)C2=O)CCO[C@H]2CC[C@@]3(C)C(=CC[C@H]4[C@@H]5CC[C@H]([C@H](C)CCCC(C)C)[C@@]5(C)CC[C@@H]43)C2)C1=O)C(=O)O)[C@@H](C)CC` (some centres unmarked), for which the IC50 turned out to be 0.0589 ± 0.0698 µM in test [1] and 0.0602 ± 0.0655 µM in test [2]. In addition, the IC90 in test [1] turned out to be 0.287 ± 0.0245 µM; in test [2] (read-out: Nectin4 IC90), 0.22 ± 0.189 µM.

For the compound “FIP-HRC450-485 (no GSGSG), Monomer N-Maleimide (peptide)”, in test [3], the IC50, beta-galactosidase complementation-based fusion assay, Nectin-4 target cells was greater than 0.7 µM and the IC90, beta-galactosidase complementation-based fusion assay, Nectin-4 target cells was greater than 10 µM.

With `CC(C)CCC[C@@H](C)[C@H]1CC[C@H]2[C@@H]3CC=C4C[C@@H](OC(=O)CSC[C@H](NC(=O)CNC(=O)[C@H](Cc5ccccc5)NC(=O)[C@@H](Cc5ccccc5)NC(=O)OCc5ccccc5)C(=O)O)CC[C@]4(C)[C@H]3CC[C@]12C` [FIP-chol (no GSGSG)], the IC50 in test [1] and in test [2] (setting [4]) was greater than 1 µM throughout. Further, the IC90 in test [1] and in test [2] (read-out: Nectin4 IC90) was greater than 1 µM each time.

`O=C(CCN1C(=O)CC(SC[C@H](NC(=O)CNC(=O)[C@H](Cc2ccccc2)NC(=O)[C@@H](Cc2ccccc2)NC(=O)OCc2ccccc2)C(=O)O)C1=O)NCCOCCOCCOCCOCCOCCOCCOCCOCCOCCOCCOCCNC(=O)CCN1C(=O)CC(SC[C@H](NC(=O)CNC(=O)[C@H](Cc2ccccc2)NC(=O)[C@@H](Cc2ccccc2)NC(=O)OCc2ccccc2)C(=O)O)C1=O` (some centres unmarked) [[FIP]2-peg11 (no GSGSG)]: the IC50 was greater than 0.6 µM in test [1]; greater than 10 µM in test [2] (IC50, Table 2 (salient peptides), Nectin-4 target cells); greater than 0.7 µM in test [2] (setting [4]). In addition, the concentration for an effect of 90% (IC90) in test [1] was greater than 1 µM; in test [2], greater than 10 µM; in test [2] (read-out: Nectin4 IC90), greater than 1 µM.

As for FIP-peg4-chol (no GSGSG) (peptide), in test [3], the IC50, beta-galactosidase complementation-based fusion assay, Nectin-4 target cells is greater than 0.7 µM and the IC90, beta-galactosidase complementation-based fusion assay, Nectin-4 target cells is greater than 1 µM.

`CC(C)CCC[C@@H](C)[C@H]1CC[C@H]2[C@@H]3CC=C4C[C@@H](OCCN(CCNC(=O)CCOCCOCCOCCOCCNC(=O)CCCN5C(=O)CC(SC[C@H](NC(=O)CNC(=O)[C@H](Cc6ccccc6)NC(=O)[C@@H](Cc6ccccc6)NC(=O)OCc6ccccc6)C(=O)O)C5=O)CCNC(=O)CCOCCOCCOCCOCCNC(=O)CCCN5C(=O)CC(SC[C@H](NC(=O)CNC(=O)[C@H](Cc6ccccc6)NC(=O)[C@@H](Cc6ccccc6)NC(=O)OCc6ccccc6)C(=O)O)C5=O)CC[C@]4(C)[C@H]3CC[C@]12C` (some centres unmarked) [[FIP-peg4]2-chol (no GSGSG)]: the results for the half-inhibitory concentration (IC50) in test [1] and in test [2] (setting [4]) were greater than 0.7 µM and greater than 1 µM, respectively. Moreover, the IC90 in test [1] and in test [2] (read-out: Nectin4 IC90) was greater than 1 µM throughout.

Take `CC(C)CCC[C@@H](C)[C@H]1CC[C@H]2[C@@H]3CC=C4C[C@@H](OC(=O)CCOCCOCCOCCOCCNC(=O)CSC[C@H](NC(=O)CNC(=O)[C@H](Cc5ccccc5)NC(=O)[C@@H](Cc5ccccc5)NC(=O)OCc5ccccc5)C(=O)O)CC[C@]4(C)[C@H]3CC[C@]12C` [FIP-peg4-chol (no GSGSG)]: the IC90 was greater than 0.9 µM in test [1] and greater than 1 µM in test [2] (read-out: Nectin4 IC90).

In the case of “FIP-HRC450-485-peg4-chol (no GSGSG) (peptide)”, in test [3], the IC50, beta-galactosidase complementation-based fusion assay, Nectin-4 target cells stood at 0.707 µM and the IC90, beta-galactosidase complementation-based fusion assay, Nectin-4 target cells was 0.825 µM.

For `CCN1C(=O)CC(SC[C@H](NC(=O)CNC(=O)[C@H](Cc2ccccc2)NC(=O)[C@@H](Cc2ccccc2)NC(=O)OCc2ccccc2)C(=O)O)C1=O` (some centres unmarked) [Monomer N-Maleimide FIP (no GSGSG)] (Cbz-[dF]FGC(Succinimide(1-Et,3-yl))-OH), the concentration for an effect of 90% (IC90) in test [1] and in test [2] (read-out: Nectin4 IC90) was greater than 1 µM in each case.

For the compound `CC(C)CCC[C@@H](C)[C@H]1CC[C@H]2[C@@H]3CC=C4C[C@@H](OC(=O)CCOCCOCCOCCOCCOCCOCCOCCOCCOCCOCCOCCOCCOCCOCCOCCOCCOCCOCCOCCOCCOCCOCCOCCOCCNC(=O)CSC[C@H](NC(=O)CNC(=O)[C@H](Cc5ccccc5)NC(=O)[C@@H](Cc5ccccc5)NC(=O)OCc5ccccc5)C(=O)O)CC[C@]4(C)[C@H]3CC[C@]12C` [peg24 chol [FIP] (no GSGSG)], the IC90 in test [1] was determined as 0.544 ± 0.0348 µM; in test [2] (read-out: Nectin4 IC90), 0.568 ± 0.186 µM.

Regarding “FIP (no GSGSG), Monomer N-Maleimide (peptide)”, in test [3], the IC50, beta-galactosidase complementation-based fusion assay, Nectin-4 target cells is greater than 1 µM and the IC90, beta-galactosidase complementation-based fusion assay, Nectin-4 target cells was greater than 1 µM.

In test [3], FIP-HRC450-485 (no GSGSG) (peptide) gave an IC50, beta-galactosidase complementation-based fusion assay, Nectin-4 target cells of 2.77 µM and an IC90, beta-galactosidase complementation-based fusion assay, Nectin-4 target cells of 6.37 µM.
